Data: ChEMBL document CHEMBL1201862, “PubChem BioAssay data set” (2004)
Active and inactive are the calls of the source.

How the values were obtained:
Caspase-3 = biological target: T1, Caspase-3 (Homo sapiens, UniProt P42574); assay type: functional;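 also: Dose-response selectivity test against caspase-3 for candidate inhibitors of sentrin-specific proteases (SENPs)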
T1 sequence (P42574 whole entry): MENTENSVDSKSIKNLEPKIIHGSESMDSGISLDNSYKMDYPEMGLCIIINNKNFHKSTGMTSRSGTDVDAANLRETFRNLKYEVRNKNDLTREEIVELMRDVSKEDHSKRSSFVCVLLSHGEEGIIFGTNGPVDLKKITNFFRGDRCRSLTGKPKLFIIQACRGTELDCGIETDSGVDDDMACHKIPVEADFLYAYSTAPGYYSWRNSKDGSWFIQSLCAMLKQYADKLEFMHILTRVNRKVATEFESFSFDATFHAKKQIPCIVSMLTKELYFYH

[1] = biological target: T2, Sentrin-specific protease 7 (Homo sapiens, UniProt Q9BQF6); assay type: functional;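 also: Luminescence-based dose-response confirmation of ultra-high-throughput screening hits, measuring inhibition of SENP7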
T2 sequence (Q9BQF6 whole entry): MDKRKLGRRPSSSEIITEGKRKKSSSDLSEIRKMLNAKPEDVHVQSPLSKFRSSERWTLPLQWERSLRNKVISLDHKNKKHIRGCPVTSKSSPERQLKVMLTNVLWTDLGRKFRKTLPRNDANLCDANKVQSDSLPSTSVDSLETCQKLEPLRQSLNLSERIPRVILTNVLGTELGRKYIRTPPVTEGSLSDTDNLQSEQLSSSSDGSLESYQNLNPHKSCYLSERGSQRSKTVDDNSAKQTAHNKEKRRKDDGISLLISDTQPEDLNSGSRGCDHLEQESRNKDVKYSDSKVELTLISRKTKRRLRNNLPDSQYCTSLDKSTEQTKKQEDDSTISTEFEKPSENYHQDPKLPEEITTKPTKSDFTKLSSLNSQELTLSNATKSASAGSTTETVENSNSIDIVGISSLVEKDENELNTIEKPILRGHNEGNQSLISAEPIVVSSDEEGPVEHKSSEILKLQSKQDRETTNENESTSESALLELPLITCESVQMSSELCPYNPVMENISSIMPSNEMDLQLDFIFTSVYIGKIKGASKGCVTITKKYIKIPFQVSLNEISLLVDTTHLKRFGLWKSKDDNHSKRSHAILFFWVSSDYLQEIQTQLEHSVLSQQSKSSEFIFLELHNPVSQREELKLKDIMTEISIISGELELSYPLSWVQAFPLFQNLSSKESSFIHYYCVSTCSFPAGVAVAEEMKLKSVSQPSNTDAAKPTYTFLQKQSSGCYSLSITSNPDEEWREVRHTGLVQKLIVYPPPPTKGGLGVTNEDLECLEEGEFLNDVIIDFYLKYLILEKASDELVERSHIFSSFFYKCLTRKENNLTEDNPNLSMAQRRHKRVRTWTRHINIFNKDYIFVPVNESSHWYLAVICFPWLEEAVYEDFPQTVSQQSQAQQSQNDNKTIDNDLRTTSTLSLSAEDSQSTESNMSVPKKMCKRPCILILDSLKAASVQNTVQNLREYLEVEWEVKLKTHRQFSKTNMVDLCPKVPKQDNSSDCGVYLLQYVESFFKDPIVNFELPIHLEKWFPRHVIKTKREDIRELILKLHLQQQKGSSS

[2] = biological target: T3, Sentrin-specific protease 8 (Homo sapiens, UniProt Q96LD8); assay type: functional;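 also: luminescence read-out of SENP8 inhibition, dose-response confirmation following an ultra-high-throughput screen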
T3 sequence (Q96LD8 whole entry): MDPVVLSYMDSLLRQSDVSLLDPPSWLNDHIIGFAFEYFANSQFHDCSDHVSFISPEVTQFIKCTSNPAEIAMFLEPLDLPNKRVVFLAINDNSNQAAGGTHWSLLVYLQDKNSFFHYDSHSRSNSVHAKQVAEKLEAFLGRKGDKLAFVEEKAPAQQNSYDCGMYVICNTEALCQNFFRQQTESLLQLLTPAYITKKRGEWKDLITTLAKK

[3] = biological target: T4, Sentrin-specific protease 6 (Homo sapiens, UniProt Q9GZR1); assay type: functional;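 also: Luminescence-based dose-response confirmatory assay of SENP6 inhibition, following up an ultra-high-throughput screen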
T4 sequence (Q9GZR1 whole entry): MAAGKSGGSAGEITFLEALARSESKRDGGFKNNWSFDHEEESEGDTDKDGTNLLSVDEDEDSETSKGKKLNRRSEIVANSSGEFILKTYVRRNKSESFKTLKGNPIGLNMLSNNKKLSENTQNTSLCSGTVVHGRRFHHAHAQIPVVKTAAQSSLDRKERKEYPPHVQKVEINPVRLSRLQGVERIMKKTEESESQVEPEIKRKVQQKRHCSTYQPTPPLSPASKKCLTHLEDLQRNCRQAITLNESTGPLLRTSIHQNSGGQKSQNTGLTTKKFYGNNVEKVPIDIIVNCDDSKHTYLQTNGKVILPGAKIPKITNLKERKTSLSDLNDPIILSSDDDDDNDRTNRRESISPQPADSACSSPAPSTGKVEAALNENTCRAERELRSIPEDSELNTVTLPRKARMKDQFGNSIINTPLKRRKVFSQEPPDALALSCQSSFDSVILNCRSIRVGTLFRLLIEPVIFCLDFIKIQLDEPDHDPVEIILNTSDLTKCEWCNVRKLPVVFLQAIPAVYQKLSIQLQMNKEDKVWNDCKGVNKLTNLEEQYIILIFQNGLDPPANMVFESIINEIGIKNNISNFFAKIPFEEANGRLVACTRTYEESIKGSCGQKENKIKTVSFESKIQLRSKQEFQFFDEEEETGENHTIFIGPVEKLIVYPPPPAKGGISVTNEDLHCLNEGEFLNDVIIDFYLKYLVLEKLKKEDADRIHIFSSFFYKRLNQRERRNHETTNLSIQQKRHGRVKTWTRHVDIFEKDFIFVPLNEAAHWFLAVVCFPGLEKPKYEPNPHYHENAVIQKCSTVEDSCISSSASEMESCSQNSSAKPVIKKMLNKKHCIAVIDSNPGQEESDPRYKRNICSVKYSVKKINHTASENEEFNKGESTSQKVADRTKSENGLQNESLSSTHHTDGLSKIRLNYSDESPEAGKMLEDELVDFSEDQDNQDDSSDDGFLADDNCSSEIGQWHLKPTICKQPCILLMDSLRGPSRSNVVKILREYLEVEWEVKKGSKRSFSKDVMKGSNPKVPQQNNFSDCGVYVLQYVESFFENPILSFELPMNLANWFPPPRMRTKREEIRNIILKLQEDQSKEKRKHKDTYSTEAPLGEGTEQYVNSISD

[4] = biological target: T5, Heat shock factor protein 1 (Mus musculus, UniProt P38532); assay: HSF1 potentiators in luciferase reporter cells, confirmation, cell-based, NIH3T3, luminescence, dose retest (AID 435004); assay type: functional;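 also: stress induced by proteasome inhibitor MG132 added 30 min after compound; luciferase reporter driven by HSF1 response element in NIH3T3 cells; actives raise luminescence as potentiators of the MG132 stress response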
T5 sequence (P38532 whole entry): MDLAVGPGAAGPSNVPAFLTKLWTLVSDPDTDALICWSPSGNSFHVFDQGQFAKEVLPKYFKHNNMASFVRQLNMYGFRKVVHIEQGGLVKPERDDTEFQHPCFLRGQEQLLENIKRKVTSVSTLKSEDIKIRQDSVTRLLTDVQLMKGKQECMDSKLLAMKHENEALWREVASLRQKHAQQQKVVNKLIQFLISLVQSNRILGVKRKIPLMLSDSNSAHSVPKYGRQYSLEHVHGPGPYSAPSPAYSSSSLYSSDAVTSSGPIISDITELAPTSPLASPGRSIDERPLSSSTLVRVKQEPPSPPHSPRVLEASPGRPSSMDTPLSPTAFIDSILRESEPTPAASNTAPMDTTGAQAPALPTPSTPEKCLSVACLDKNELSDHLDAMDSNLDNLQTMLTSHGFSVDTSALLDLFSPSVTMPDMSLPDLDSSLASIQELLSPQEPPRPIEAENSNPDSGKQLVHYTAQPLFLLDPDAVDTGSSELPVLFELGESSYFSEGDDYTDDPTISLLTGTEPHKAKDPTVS

[5] = biological target: T6, Zinc finger protein mex-5 (Caenorhabditis elegans, UniProt Q9XUB2); assay: MEX-5/TCR-2 RNA interaction inhibitors, dose response, biochemical, C. elegans, fluorescence polarization (AID 1960)
T6 sequence (Q9XUB2 whole entry): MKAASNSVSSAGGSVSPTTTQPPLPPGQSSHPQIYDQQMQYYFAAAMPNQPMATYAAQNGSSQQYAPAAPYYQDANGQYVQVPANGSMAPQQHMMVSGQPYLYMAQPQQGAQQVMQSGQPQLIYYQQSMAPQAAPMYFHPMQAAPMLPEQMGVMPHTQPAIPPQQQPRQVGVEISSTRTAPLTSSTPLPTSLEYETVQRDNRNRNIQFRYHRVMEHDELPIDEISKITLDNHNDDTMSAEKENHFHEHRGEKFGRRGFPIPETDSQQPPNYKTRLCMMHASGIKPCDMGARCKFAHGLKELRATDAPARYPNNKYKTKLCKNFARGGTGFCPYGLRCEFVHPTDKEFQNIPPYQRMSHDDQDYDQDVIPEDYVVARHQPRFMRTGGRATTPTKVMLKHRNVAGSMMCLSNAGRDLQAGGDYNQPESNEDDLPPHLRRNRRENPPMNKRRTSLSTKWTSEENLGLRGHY

[6] = biological target: T7, Endoribonuclease toxin MazF (Escherichia coli K-12, UniProt P0AE70); assay: MazF toxin RNase activators, dose response, biochemical, fluorescence, single-stranded RNA substrate, uHTS hits (AID 588481); assay type: functional
T7 sequence (P0AE70 whole entry): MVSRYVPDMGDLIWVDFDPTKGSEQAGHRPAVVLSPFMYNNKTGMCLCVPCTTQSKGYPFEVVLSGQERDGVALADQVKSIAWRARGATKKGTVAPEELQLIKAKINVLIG

cells = assay type: functional
[7] = biological target: T7, Endoribonuclease toxin MazF; assay: fluorescent RNA oligo signal without MazF, dose response, counter-screen for MazEF activator project, biochemical, fluorescence, single-stranded RNase substrate (AID 588502); assay type: functional
[8] = biological target: T8, RNA-binding protein pos-1 (Caenorhabditis elegans, UniProt G5EF15); assay: inhibitors of POS-1/mex-3 RNA binding, dose response, biochemical, fluorescence polarization (AID 1964);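 also: purified POS-1 fused to maltose binding protein made in E. coli; potency of compounds blocking POS-1 binding to fluorescent RNA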
T8 sequence (G5EF15 whole entry): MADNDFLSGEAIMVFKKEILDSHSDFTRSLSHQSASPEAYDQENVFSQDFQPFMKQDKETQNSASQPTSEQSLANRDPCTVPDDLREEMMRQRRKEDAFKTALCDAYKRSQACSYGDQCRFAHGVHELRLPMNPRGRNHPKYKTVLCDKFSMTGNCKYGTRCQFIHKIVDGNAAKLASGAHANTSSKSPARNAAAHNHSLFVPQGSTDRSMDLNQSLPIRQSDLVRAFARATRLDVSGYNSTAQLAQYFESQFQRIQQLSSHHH

Fatty acid synthase [9] = biological target: T9, Fatty acid synthase (Homo sapiens, UniProt P49327); assay: FAS thioesterase domain inhibitors, dose response, biochemical, kinetic fluorescence intensity (AID 624326); assay type: functional;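 also: rate of fluorescence rise from hydrolysis of a fluorogenic O-methyl fluorescein ester substrate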
[10] = Luminescence Cell-Based Dose Retest to Confirm Inhibitors of Cancer Stem Cells. [Related pubchem assays (depositor defined):AID2717, AID2721]; assay type: functional; details: Homo sapiens
Fatty acid synthase [11] = biological target: T9, Fatty acid synthase; assay: FAS thioesterase domain inhibitors, dose response, biochemical, endpoint fluorescence intensity, uHTS hits (AID 624327); assay type: functional;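 also: fluorescence from hydrolysis of an O-methyl fluorescein acyl ester substrate by the enzyme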
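For AC50 in this document: cells exposed to compound for roughly 70 hours or longer before luminescence read.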

T9 sequence (P49327 whole entry, the tested form may be a part): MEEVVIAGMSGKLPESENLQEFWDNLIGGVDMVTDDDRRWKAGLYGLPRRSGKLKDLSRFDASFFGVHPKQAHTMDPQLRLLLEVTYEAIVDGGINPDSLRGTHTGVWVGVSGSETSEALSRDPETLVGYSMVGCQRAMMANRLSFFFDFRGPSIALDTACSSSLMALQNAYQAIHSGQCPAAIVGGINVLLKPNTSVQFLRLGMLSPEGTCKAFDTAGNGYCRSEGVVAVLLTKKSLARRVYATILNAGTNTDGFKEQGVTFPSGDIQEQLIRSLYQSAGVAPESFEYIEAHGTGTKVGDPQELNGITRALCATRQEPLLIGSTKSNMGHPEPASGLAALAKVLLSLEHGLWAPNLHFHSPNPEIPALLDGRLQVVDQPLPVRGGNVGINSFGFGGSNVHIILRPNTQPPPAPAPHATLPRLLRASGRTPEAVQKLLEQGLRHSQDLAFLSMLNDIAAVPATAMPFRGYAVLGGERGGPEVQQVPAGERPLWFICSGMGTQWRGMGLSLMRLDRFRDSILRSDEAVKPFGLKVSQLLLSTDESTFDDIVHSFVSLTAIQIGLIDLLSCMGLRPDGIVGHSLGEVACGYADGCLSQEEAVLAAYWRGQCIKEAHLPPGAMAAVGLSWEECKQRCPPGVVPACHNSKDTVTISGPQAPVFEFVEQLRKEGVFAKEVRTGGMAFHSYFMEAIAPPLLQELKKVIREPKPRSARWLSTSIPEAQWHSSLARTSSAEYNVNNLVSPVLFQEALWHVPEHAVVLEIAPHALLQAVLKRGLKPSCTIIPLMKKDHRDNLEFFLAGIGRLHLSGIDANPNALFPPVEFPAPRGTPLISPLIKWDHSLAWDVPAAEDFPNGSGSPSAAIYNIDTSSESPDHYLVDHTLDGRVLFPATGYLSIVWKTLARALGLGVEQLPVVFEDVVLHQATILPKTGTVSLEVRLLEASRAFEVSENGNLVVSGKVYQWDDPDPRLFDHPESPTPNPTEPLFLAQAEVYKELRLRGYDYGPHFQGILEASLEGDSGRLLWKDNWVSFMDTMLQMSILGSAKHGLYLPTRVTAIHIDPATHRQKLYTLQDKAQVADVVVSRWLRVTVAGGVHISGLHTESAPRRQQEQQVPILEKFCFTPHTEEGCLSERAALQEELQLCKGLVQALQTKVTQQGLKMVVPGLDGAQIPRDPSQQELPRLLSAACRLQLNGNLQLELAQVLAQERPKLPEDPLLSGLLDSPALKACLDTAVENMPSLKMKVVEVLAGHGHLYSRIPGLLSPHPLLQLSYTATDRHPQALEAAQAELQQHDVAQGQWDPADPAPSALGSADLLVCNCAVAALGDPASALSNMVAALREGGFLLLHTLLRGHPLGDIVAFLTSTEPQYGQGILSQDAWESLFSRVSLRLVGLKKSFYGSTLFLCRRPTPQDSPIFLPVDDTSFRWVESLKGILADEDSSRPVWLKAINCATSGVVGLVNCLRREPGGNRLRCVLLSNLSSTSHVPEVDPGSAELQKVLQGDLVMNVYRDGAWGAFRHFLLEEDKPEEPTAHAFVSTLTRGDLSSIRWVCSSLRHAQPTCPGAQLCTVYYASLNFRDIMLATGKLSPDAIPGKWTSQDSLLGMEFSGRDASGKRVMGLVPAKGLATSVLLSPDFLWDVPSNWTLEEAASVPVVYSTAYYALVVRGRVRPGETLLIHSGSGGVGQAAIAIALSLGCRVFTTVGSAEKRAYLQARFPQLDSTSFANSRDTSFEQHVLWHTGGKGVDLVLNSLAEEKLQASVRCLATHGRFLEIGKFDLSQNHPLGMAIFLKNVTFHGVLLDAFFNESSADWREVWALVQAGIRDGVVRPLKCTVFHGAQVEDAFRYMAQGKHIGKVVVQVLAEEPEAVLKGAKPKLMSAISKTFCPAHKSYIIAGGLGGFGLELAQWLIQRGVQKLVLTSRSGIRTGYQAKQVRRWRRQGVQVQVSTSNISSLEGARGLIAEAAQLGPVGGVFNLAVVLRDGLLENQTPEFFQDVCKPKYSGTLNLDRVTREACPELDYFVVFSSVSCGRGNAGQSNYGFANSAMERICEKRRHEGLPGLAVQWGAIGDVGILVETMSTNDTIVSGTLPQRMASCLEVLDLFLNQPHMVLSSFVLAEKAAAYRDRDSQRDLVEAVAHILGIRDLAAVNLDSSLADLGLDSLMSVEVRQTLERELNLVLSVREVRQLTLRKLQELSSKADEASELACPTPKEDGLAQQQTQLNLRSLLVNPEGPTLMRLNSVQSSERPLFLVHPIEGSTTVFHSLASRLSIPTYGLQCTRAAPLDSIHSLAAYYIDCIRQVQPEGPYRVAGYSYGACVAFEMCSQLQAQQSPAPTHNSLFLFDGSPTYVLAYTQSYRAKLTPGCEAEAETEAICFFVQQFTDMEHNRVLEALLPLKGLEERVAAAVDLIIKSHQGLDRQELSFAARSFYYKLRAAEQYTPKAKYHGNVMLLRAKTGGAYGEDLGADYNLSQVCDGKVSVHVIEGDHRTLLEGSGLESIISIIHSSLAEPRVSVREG

Structure (SMILES)	IC50 (Caspase-3)	IC50 [1]	IC50 [2]	IC50 [3]	EC50 [4]	EC50 [5]	EC50 [6]	IC50 (cells)	EC50 [7]	EC50 [8]	IC50 (Fatty acid synthase [9])	AC50 [10]	IC50 (Fatty acid synthase [11])
O=C(O)c1ccc(-c2nc(O)c3c(-c4ccccc4)csc3n2)cc1	> 100 µM (inactive)	40.4 µM (active)	61.6 µM (active)	56.1 µM (active)	–	–	–	–	–	–	–	–	–
COc1nc(C)ccc1-c1noc(-c2cccs2)n1	13 µM (active)	5.07 µM (active)	9.82 µM (active)	32.7 µM (active)	> 260 µM (inactive)	–	–	–	–	–	–	–	–
O=[N+]([O-])c1ccc(Nc2ccccc2O)c2nonc12	–	–	–	–	–	28.2 µM (active)	> 99 µM (inactive)	5.81 µM (active)	> 99 µM (inactive)	24.4 µM (active)	–	–	–
COc1ccc2nc(NC(=O)c3ccc([N+](=O)[O-])o3)sc2c1	28.2 µM (active)	4.54 µM (active)	22.9 µM (active)	13.8 µM (active)	–	–	–	–	–	–	8.39 µM (active)	1.96 µM (active)	14.5 µM (active)
O=[N+]([O-])c1ccc(S(=O)(=O)N[N-][C+]2CCCCC2)cc1	–	–	–	–	–	–	> 99 µM (inactive)	–	7.03 µM (active)	–	–	–	–
